Measured values reported in ChEMBL document CHEMBL1143355, “Aryl sulphonyl amides as potent agonists of the growth hormone secretagogue (ghrelin) receptor” (Bioorg Med Chem Lett, 2009).

Key:
[1] = target: Growth hormone secretagogue receptor type 1 (Homo sapiens, UniProt Q92847); test: Agonist activity at human ghrelin receptor by cell based BACMAM FLIPR assay; type: functional
[2] = Half life in Sprague-Dawley rat at 1 mg/kg, iv; type: ADME, organism-based; parameters: dose 1 mg/kg, route intravenous; settings: in vivo
[3] = Mean residence time in Sprague-Dawley rat at 1 mg/kg, iv; type: ADME, organism-based; parameters: dose 1 mg/kg, route intravenous; settings: in vivo
[4] = Cmax in Sprague-Dawley rat at 3 mg/kg, po; type: ADME, organism-based; parameters: dose 3 mg/kg, route oral; settings: in vivo
[5] = Tmax in Sprague-Dawley rat at 3 mg/kg, po; type: ADME, organism-based; parameters: dose 3 mg/kg, route oral; settings: in vivo
[6] = system: Rattus norvegicus; test: AUC (0 to 6 hrs) in Sprague-Dawley rat at 3 mg/kg, po; type: ADME, organism-based, Plasma; parameters: time < 6 hr, dose 3 mg/kg, route oral; settings: in vivo
[7] = Total body clearance in Sprague-Dawley rat at 1 mg/kg, iv; type: ADME, organism-based; parameters: dose 1 mg/kg, route intravenous; settings: in vivo
[8] = Volume of distribution at steady state in Sprague-Dawley rat at 1 mg/kg, iv; type: ADME, organism-based; parameters: dose 1 mg/kg, route intravenous; settings: in vivo, read-out: Vdss
[9] = Cmax in Sprague-Dawley rat at 1 mg/kg, iv; type: ADME, organism-based; parameters: dose 1 mg/kg, route intravenous; settings: in vivo

Growth hormone secretagogue receptor type 1, sequence (Q92847 whole entry): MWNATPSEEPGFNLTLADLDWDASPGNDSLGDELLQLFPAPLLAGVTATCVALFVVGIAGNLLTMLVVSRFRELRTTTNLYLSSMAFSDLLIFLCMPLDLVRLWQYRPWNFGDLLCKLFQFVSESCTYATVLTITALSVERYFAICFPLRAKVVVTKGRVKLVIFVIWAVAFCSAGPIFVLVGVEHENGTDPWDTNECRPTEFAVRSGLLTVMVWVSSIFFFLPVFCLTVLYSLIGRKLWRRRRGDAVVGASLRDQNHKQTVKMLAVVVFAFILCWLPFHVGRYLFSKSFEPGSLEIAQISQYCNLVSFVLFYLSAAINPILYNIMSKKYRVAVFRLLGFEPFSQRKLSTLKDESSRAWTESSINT

Row | SMILES | EC50 [1] [nM] | other results
1 | N[C@H]1CCN(C(=O)[C@H]2CCCCN2S(=O)(=O)c2ccc(-c3ccccc3)cc2)C1 | > 5010 | 
2 | N[C@H]1CCN(C(=O)[C@@H]2CCCCN2S(=O)(=O)c2ccc(-c3cccnc3)cc2)C1 | 316 | 
3 | Cc1ccc(-c2ccc(S(=O)(=O)N3C[C@H](O)C[C@H]3C(=O)N3CC[C@@H](N)C3)cc2F)o1 | 0.501 | 
4 | Cc1ccc(-c2ccc(S(=O)(=O)N3CCCC[C@H]3C(=O)N3C[C@@H](C)N[C@@H](C)C3)cc2F)o1 | 2.51 | 
5 | Cc1ccc(-c2ccc(S(=O)(=O)N3CCCC[C@H]3C(=O)N3CC[C@@H](N)C3)cc2F)o1 | 0.0501 | 
6 | Cc1ccc(-c2ccc(S(=O)(=O)N3CCCC[C@H]3C(=O)N3CC[C@H](N)C3)cc2F)o1 | 0.158 | 
7 | Cc1ccc(-c2ccc(S(=O)(=O)N3CC[C@H]3C(=O)N3CC[C@@H](N)C3)cc2F)o1 | 15.8 | 
8 | N[C@H]1CCN(C(=O)[C@@H]2CCCCN2S(=O)(=O)c2ccc(-c3ccccc3)cc2)C1 | 7.94 | 
9 | N[C@@H]1CCN(C(=O)[C@@H]2CCCCN2S(=O)(=O)c2ccc(-c3ccccc3)cc2)C1 | 15.8 | 
10 | N[C@@H]1CCN(C(=O)[C@@H]2CCCCN2S(=O)(=O)c2ccc(-c3ccco3)cc2)C1 | 31.6 | 
11 | N[C@H]1CCN(C(=O)[C@@H]2CCCCN2S(=O)(=O)c2ccc(NC(=O)c3ccccc3)cc2)C1 | 20 | 
12 | COc1cccc(C(=O)Nc2ccc(S(=O)(=O)N3CCCC[C@H]3C(=O)N3CC[C@H](N)C3)cc2)c1 | 2 | 
13 | Cc1ccc(-c2ccc(S(=O)(=O)N3CCCC[C@H]3C(=O)N3CC[C@@H](N)C3)cc2)o1 | 0.251 | 
14 | N[C@@H]1CCN(C(=O)[C@H]2CCCCN2S(=O)(=O)c2ccc(-c3ccccc3)cc2)C1 | > 5010 | 
15 | CNC1CCN(C(=O)[C@@H]2CCCCN2S(=O)(=O)c2ccc(-c3ccc(C)o3)cc2)C1 (stereo not given in full) | 10 | 
16 | Cc1ccc(-c2ccc(S(=O)(=O)N3CCCC[C@H]3C(=O)N3CCCNCC3)cc2)o1 | 7.94 | 
17 | N[C@@H]1CCN(C(=O)[C@@H]2CCCCN2S(=O)(=O)c2ccc(-c3cc(Cl)ccc3Cl)cc2)C1 | 0.316 | 
18 | Cc1ccc(-c2ccc(S(=O)(=O)N3CCNC[C@H]3C(=O)N3CC[C@@H](N)C3)cc2)o1 | 1.26 | 
19 | NC1CCN(C(=O)C2CCCCN2S(=O)(=O)c2ccc(-c3ccccc3)cc2)C1 (stereo not given) | 31.6 | 
20 | Cc1ccc(-c2ccc(S(=O)(=O)N3C[C@@H](O)C[C@H]3C(=O)N3CC[C@@H](N)C3)cc2F)o1 | 5.01 | 
21 | N[C@@H]1CCN(C(=O)[C@@H]2CCCCN2S(=O)(=O)c2ccc(-c3cc(F)ccc3F)cc2)C1 | 1 | 
22 | Cc1ccc(-c2ccc(S(=O)(=O)N3CC[C@H](O)[C@H]3C(=O)N3CC[C@@H](N)C3)cc2F)o1 | 0.2 | 
23 | N[C@H]1CCN(C(=O)[C@@H]2CCCCN2S(=O)(=O)c2ccc(NC(=O)c3ccccc3F)cc2)C1 | 3.98 | 
24 | Cc1ccc(-c2ccc(S(=O)(=O)N3CCC[C@H]3C(=O)N3CC[C@@H](N)C3)cc2F)o1 | 0.398 | half-life [2]: 2.4 h; MRT [3]: 2.4 h; Cmax [4]: 151 nM; Tmax [5]: 4 h; AUC [6]: 5 kg·min/L; clearance [7]: 25 mL/min/kg; Vd [8]: 3.5 L/kg; Cmax [9]: 762 nM
25 | N[C@@H]1CCN(C(=O)[C@@H]2CCCCN2S(=O)(=O)c2ccc(-c3ccco3)c(F)c2)C1 | 3.16 | 
26 | N[C@@H]1CCN(C(=O)[C@@H]2CCCCN2S(=O)(=O)c2ccc(Br)cc2)C1 | 398 | 
27 | Cc1ccc(-c2ccc(S(=O)(=O)N3CCCC[C@H]3C(=O)N3C[C@@H](C)N[C@@H](C)C3)cc2)o1 | 6.31 | 
